Experiments:
[1] = system: ecDNA+ FGFR2 amplified SNU-16 CDX tumor model; assay: Durability of anti-tumor response in SNU-16 CDX model, subsequent study; assay type: in vivo, Female BALB/c nude mice; details: single agents vs vehicle: Compound 1 50 mg/kg PO Q2D, infigratinib 15 mg/kg PO QD
Text: (§1) Tumor volume (mm^3) data are shown as mean z SEM for each treatment group. […] PO: orally, mpk: mg/kg, QD: once per day, Q2D: once every other day.

[2] = system: ecDNA+ FGFR2 amplified SNU-16 CDX tumor model; assay: Anti-tumor and PD activity in ecDNA+ FGFR2 amplified SNU-16 CDX model, first study; assay type: in vivo, female SCID beige mice
Text: as §1

[3] = system: ecDNA+ CDK4 amplified SJSA-1 CDX tumor model; assay: Anti-tumor activity in ecDNA+ CDK4 amplified osteosarcoma SJSA-1 CDX model; assay type: in vivo, Female Hsd:Athymic Nude-Foxnlnu mice; details: vs vehicle
Text: Tumor volume (mm^3) data are shown as mean±SEM for each treatment group. […] PO: orally, QD: once every day, Q2D: once every other day.

Row | SMILES | mean % ΔTGI [1] [%] | mean % ΔTGI ([2]; Day 12 vs vehicle, single agents: Compound 1 100 mg/kg PO Q2D, infigratinib 15 mg/kg PO QD) [%] | antitumor activity (in words) ([2]; infigratinib 15 mg/kg PO QD alone or with Compound 1 PO Q2D) | tumor FGFR2 gene copy number (qPCR) ([2]; tumors treated for 12 days, infigratinib 15 mg/kg PO QD alone or with Compound 1 25, 50, 100 mg/kg PO Q2D) | mean % ΔTGI ([3]; single agent 20 mg/kg PO QD, Study 2 (FIG. 3B)) [%] | mean % ΔTGI ([3]; single agent 50 mg/kg PO QD, Study 1 (FIG. 3A)) [%]
1 | CCN1CCN(c2ccc(Nc3cc(N(C)C(=O)Nc4c(Cl)c(OC)cc(OC)c4Cl)ncn3)cc2)CC1 [infigratinib] | 65.4 | 97.6 | tumors resumed growth | concomitant increase in FGFR2 gene copy number |  | 
2 | CC(=O)c1c(C)c2cnc(Nc3ccc(N4CCNCC4)cn3)nc2n(C2CCCC2)c1=O [palbociclib] |  |  |  |  | 16.9 | 78.3

Source: patent US20260263454A1, “USES OF A CHECKPOINT KINASE 1 (CHK1) INHIBITOR” (Boundless Bio, Inc., priority 2023, published 2026)
